Some test systems named below: HOP-92; SN12C; SF-295; IGROV-1; NCI-H522; CCRF-CEM; NCI-H460; NCI-H23; HCT-15; Malme-3M; M19-MEL; OVCAR-4; HCT-116; COLO 205; UO-31; UACC-257.
Common to all, as to experiment: NCI tumour cell line growth inhibition, 48 h

The text below walks through data of ChEMBL document CHEMBL1201862, “PubChem BioAssay data set” (2004).

SMILES strings stand for the structures.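 Growth conditions: 96-well plates. Treatment: test compound, 48 hours, 5 concentrations. Analysis: linear interpolation between bracketing concentrations; unreached endpoints set to highest concentration. At the GI50, growth is halved.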 Active and inactive are the calls of the source. No stated cut-off is given here; in the data, active = GI50 up to about 1.1 µM and inactive = higher.

Take `Oc1cc(-c2ccccc2)c2ccccc2n1`: the GI50 in the test on HOP-92 is 5.62 µM (inactive); in the test with SN12C it was 30.9 µM (inactive); in the test with SF-295, 87.9 µM (inactive); with IGROV-1, 23.9 µM (inactive); in the test with NCI-H522, 20.9 µM (inactive); in the test on CCRF-CEM it was 60.8 µM (inactive). The GI50 in the test on NCI-H460 was 41.9 µM (inactive); in the test on NCI-H23, 84.7 µM (inactive); in the test with HCT-15 it was 58.9 µM; in the test on Malme-3M, 24.9 µM (inactive); in the test with M19-MEL, 82.6 µM (inactive); with OVCAR-4, 73.6 µM (inactive). The GI50 in the test on HCT-116 is 64.7 µM (inactive); in the test on COLO 205, > 100 µM (inactive); with UO-31, 15.1 µM (inactive); with UACC-257, 61 µM (inactive).

On to `[N-]=[N+]=Nc1ccc(CCN2CCN(c3cccc(C(F)(F)F)c3)CC2)cc1I`, for which the GI50 with SN12C was 49 µM (inactive); in the test with SF-295, > 100 µM (inactive); in the test on NCI-H522, 27.7 µM (inactive); with CCRF-CEM, 54.1 µM (inactive); in the test with NCI-H460, 62.4 µM (inactive); with NCI-H23, 46.6 µM (inactive). The GI50 was 25.2 µM in the test on HCT-15; > 100 µM (inactive) in the test on Malme-3M; 83 µM (inactive) in the test on M19-MEL; > 100 µM (inactive) with OVCAR-4; 71.1 µM (inactive) with HCT-116; > 100 µM (inactive) in the test on COLO 205. Moreover, the GI50 in the test with UO-31 was 21.1 µM (inactive); in the test with UACC-257, 96.8 µM (inactive).

With `CCOC(=O)NN(C(=O)OCC)C(C(=O)c1ccc(Cl)cc1)=C1NCCN1`, the GI50 in the test on HOP-92, in the test with SN12C, in the test with SF-295, with IGROV-1, in the test on NCI-H522 and with CCRF-CEM was > 100 µM (inactive) throughout. Besides, the GI50 in the test with NCI-H460, with NCI-H23, in the test on Malme-3M, in the test with M19-MEL, with OVCAR-4 and in the test with HCT-116 was > 100 µM (inactive) throughout. The GI50 in the test on COLO 205, in the test on UO-31 and in the test on UACC-257 was > 100 µM (inactive) each time.

Consider `CCOC(=O)[C@H](CCCNC(=O)OC(C)(C)C)NCc1ccc(OC)c(OC)c1`, for which the GI50 in the test on HOP-92, with SN12C, with SF-295, with IGROV-1, with NCI-H522 and in the test on CCRF-CEM was > 100 µM (inactive) each time. Further, the GI50 with NCI-H23, in the test on Malme-3M, with M19-MEL, in the test on OVCAR-4, with HCT-116 and with COLO 205 was > 100 µM (inactive) throughout. In addition, the GI50 with UO-31 and in the test on UACC-257 was > 100 µM (inactive) in each case.

On to `CCOC(=O)NC(=O)c1cn(-c2ccc(CCOC(=O)NCCCCCCNC(=O)OCCc3ccc(-n4c(=O)[nH]cc(C(=O)NC(=O)OCC)c4=O)cc3)cc2)c(=O)[nH]c1=O`, for which the GI50 in the test on HOP-92 was > 72.4 µM (inactive); in the test on SN12C, > 100 µM (inactive); in the test on SF-295 it was 31.6 µM (inactive); in the test on IGROV-1, 75.2 µM (inactive); in the test on NCI-H522, 22.4 µM (inactive); with CCRF-CEM, 32.6 µM (inactive). Also, the GI50 with NCI-H460 is 28.8 µM (inactive); in the test with NCI-H23, 49.4 µM (inactive); in the test on HCT-15, > 100 µM; with Malme-3M, 50 µM (inactive); with M19-MEL, 47 µM (inactive); in the test with OVCAR-4 it was > 100 µM (inactive). The GI50 in the test with HCT-116 was > 100 µM (inactive); with COLO 205, > 100 µM (inactive); in the test with UO-31, > 65.8 µM (inactive); in the test with UACC-257 it was > 72.8 µM (inactive).

On to `CCCCc1c2c(nc3c1CCC/C3=C\c1ccccc1)/C(=C/c1ccccc1)CCC2`, for which the GI50 in the test on SN12C, in the test on SF-295, in the test with IGROV-1, with NCI-H522, with CCRF-CEM and with NCI-H460 was > 100 µM (inactive) each time. The GI50 is > 100 µM (inactive) in the test on NCI-H23; > 100 µM with HCT-15; > 100 µM (inactive) with Malme-3M; > 100 µM (inactive) in the test with M19-MEL; > 100 µM (inactive) in the test with HCT-116; > 100 µM (inactive) in the test with COLO 205. The GI50 in the test on UO-31 and in the test with UACC-257 was > 100 µM (inactive) throughout.

`CCOC(=O)C1(C)C2=CC=C(O2)C(C)(C)C2=CC=C(O2)C(C)(C)C2=CC=C(O2)C(C)(C)C2=CC=C1O2`: the GI50 was 36.5 µM (inactive) in the test with HOP-92; > 100 µM (inactive) in the test with SN12C; > 100 µM (inactive) with SF-295; > 100 µM (inactive) in the test on IGROV-1; > 100 µM (inactive) in the test with NCI-H522; 64.3 µM (inactive) in the test on CCRF-CEM. Also, the GI50 with NCI-H460 is > 100 µM (inactive); in the test on NCI-H23, > 100 µM (inactive); in the test on HCT-15, > 100 µM; with Malme-3M, > 100 µM (inactive); with M19-MEL, > 100 µM (inactive); in the test with OVCAR-4, 3.44 µM (inactive). The results for the GI50 in the test with HCT-116, in the test on COLO 205 and in the test with UACC-257 were 46.9 µM (inactive), 42.3 µM (inactive) and > 100 µM (inactive), respectively.

Take `CCOC(=O)C1=C(Nc2ccc(Br)cc2)OC/C1=N\NC(=O)c1ccccc1O`: the GI50 is 52.4 µM (inactive) in the test with SN12C; 14.2 µM (inactive) in the test on SF-295; 6.46 µM (inactive) in the test on IGROV-1; 7.98 µM (inactive) in the test on NCI-H522; 9.66 µM (inactive) in the test on CCRF-CEM; 12.9 µM (inactive) in the test with NCI-H460. In addition, the GI50 with NCI-H23 is 6.52 µM (inactive); in the test on HCT-15, 11.7 µM; in the test with Malme-3M, 35.4 µM (inactive); in the test with M19-MEL, 35 µM (inactive); with OVCAR-4, 26.2 µM (inactive); in the test on HCT-116, 10.1 µM (inactive). Besides, the GI50 with COLO 205 is 38.9 µM (inactive); in the test with UO-31 it was 9.71 µM (inactive); with UACC-257, 23 µM (inactive).

`Oc1cc(C2OCCCO2)cc(O)c1O`: the GI50 with SN12C, in the test on SF-295, with IGROV-1, with NCI-H522, in the test on CCRF-CEM and in the test on NCI-H460 was > 100 µM (inactive) in each case. Further, the GI50 with NCI-H23 was > 100 µM (inactive); in the test with HCT-15, > 100 µM; in the test on Malme-3M it was > 100 µM (inactive); in the test with M19-MEL it was > 100 µM (inactive); with OVCAR-4, > 100 µM (inactive); in the test with HCT-116 it was > 100 µM (inactive). Moreover, the GI50 in the test with COLO 205, in the test on UO-31 and in the test with UACC-257 was > 100 µM (inactive) each time.

Consider `CCCCCCCCCCCCC(CCCCCCCCCCCC)OP(=O)(O)O`, for which the GI50 with HOP-92 was 56.1 µM (inactive); in the test on SN12C it was > 100 µM (inactive); in the test with SF-295, > 100 µM (inactive); in the test with IGROV-1, 87.3 µM (inactive); with NCI-H522, 84.7 µM (inactive); in the test with CCRF-CEM, > 100 µM (inactive). For the same compound, the GI50 in the test with NCI-H460 is > 100 µM (inactive); in the test on NCI-H23, > 100 µM (inactive); in the test on HCT-15, 88.3 µM; with Malme-3M it was > 100 µM (inactive); in the test on M19-MEL, > 100 µM (inactive); in the test on OVCAR-4, > 100 µM (inactive). The GI50 is 73.3 µM (inactive) in the test on HCT-116, > 100 µM (inactive) in the test on COLO 205, 55.6 µM (inactive) in the test on UO-31 and > 100 µM (inactive) in the test with UACC-257.

As to `COC(=O)C1CCc2c1c(=O)n1c([nH]c3ccccc31)c2C#N` (stereo unspecified), the GI50 in the test on HOP-92, with SF-295, in the test on IGROV-1, in the test on NCI-H522, with CCRF-CEM and in the test on NCI-H460 was > 100 µM (inactive) in each case. The GI50 in the test with NCI-H23 was > 100 µM (inactive); in the test on HCT-15, > 100 µM; with Malme-3M, > 100 µM (inactive); with M19-MEL, > 100 µM (inactive); in the test on OVCAR-4 it was > 100 µM (inactive); in the test with HCT-116 it was > 100 µM (inactive). For the same compound, the GI50 in the test on COLO 205, in the test with UO-31 and in the test on UACC-257 was > 100 µM (inactive) in each case.

On to `CC(C)(C)c1ccc(OC2CCO2)cc1` (stereo unspecified), for which the GI50 is 35.4 µM (inactive) in the test on HOP-92; 18.7 µM (inactive) in the test on SN12C; 46.9 µM (inactive) in the test with SF-295; > 100 µM (inactive) in the test with IGROV-1; 23.6 µM (inactive) with NCI-H522; 24.7 µM (inactive) in the test with CCRF-CEM. Further, the GI50 was 24.3 µM (inactive) in the test on NCI-H460; 55.5 µM (inactive) with NCI-H23; 20 µM in the test on HCT-15; 67 µM (inactive) in the test with Malme-3M; 23.1 µM (inactive) in the test with M19-MEL; 34.2 µM (inactive) in the test with OVCAR-4. The GI50 in the test with HCT-116 was 21 µM (inactive); in the test with COLO 205 it was 29.4 µM (inactive); with UO-31, 58.2 µM (inactive); with UACC-257 it was 31.6 µM (inactive).

As to `O=C(O)C1C2CCC(O2)C1C(=O)N1CCCCC1` (stereo unspecified), the GI50 with HOP-92 is 2.38 µM (inactive); in the test on SN12C it was 2.57 µM (inactive); in the test on SF-295 it was 10.4 µM (inactive); with IGROV-1, 30.5 µM (inactive); in the test with NCI-H522 it was 4.88 µM (inactive); with NCI-H460 it was 12.8 µM (inactive). In addition, the GI50 in the test with NCI-H23 is 11.7 µM (inactive); in the test on HCT-15, 12.1 µM; in the test on Malme-3M it was 10.6 µM (inactive); with M19-MEL, 9.1 µM (inactive); with OVCAR-4 it was 10.8 µM (inactive); in the test with HCT-116 it was 10.2 µM (inactive). The GI50 in the test with COLO 205 is 1.95 µM (inactive); with UO-31, 19.9 µM (inactive); in the test on UACC-257, 17.2 µM (inactive).
